The nature of the experiment: BAA-NP, BUA-NP or human BNP infusion in anesthetized dogs: renal, hemodynamic and neurohumoral measurements. To be noted: for renal perfusion pressure: mean arterial pressure minus right atrial pressure; for renal perfusion pressure / mean arterial pressure: BNP at equimolar dose; for net renal generation of cGMP / plasma cGMP / urinary cGMP excretion / urinary sodium excretion / urine flow: 30 and 60 minutes of infusion vs. pre-infusion; for plasma ANP immunoreactivity / plasma CNP immunoreactivity: RIA; for glomerular filtration rate: inulin clearance. Format: in vivo, dog. The procedure: BAA-NP and BUA-NP were reconstituted in normal saline and were infused at 1 mL/minute. Dogs were maintained on a Na^+-controlled diet (Hill's i/d® canine diet, Hill's Pet Nutrition, Inc., Topeka, Kans.). In the evening before the experiment, the dog was fasted with ad lib access to water and was given lithium carbonate 300 mg orally for assessment of renal tubular function on the next day.
On the day of the experiment, the dog was anesthetized with pentobarbital sodium (induction 6-20 mg/kg i.v., maintenance 5-15 mg/kg/h i.v.) and fentanyl (0.04-0.12 mg/kg i.v., maintenance 0.04-0.18 mg/kg/h), and was intubated and mechanically ventilated (Harvard Apparatus, Holliston, Mass.) with 3 L/minute of 02 (tidal volume 15 mL/kg, 12 cycles/minute). The femoral artery was cannulated for blood pressure monitoring and for blood sampling. The femoral vein was cannulated for infusion of inulin and normal saline. The saphenous vein was cannulated for polypeptide infusion. A balloon-tipped thermodilution catheter (Edwards Lifesciences, Irvine, Calif.) was used for monitoring hemodynamics and body temperature (maintained at 38±1° C.). Cardiac output (CO) was measured in triplicate and averaged (model 9510-A, American Edwards Laboratories, Irvine, Calif.). Hemodynamic data were digitally recorded and analyzed (Sonometrics Corporation, London, ON). The left kidney was exposed via a flank incision. The ureter was cannulated for timed urine collection. An electromagnetic flow probe was placed on the renal artery for measuring renal blood flow (Burnett et al., Am. J. Physiol., 247(5 Pt 2):F863-6 (1984)). A weight-adjusted bolus of inulin was given, followed by an inulin infusion (1 mL/minute) to achieve plasma levels of 40-60 mg/dL (Burnett et al., Am. J. Physiol., 247(5 Pt 2):F863-6 (1984); Chen et al., Am. J. Physiol. Regul. Integr. Comp. Physiol., 288(5):R1093-7 (2005); and Margulies et al., J. Clin. Invest., 88(5):1636-42 (1991)), for measuring GFR by inulin clearance. Normal saline was infused (1 mL/minute) and was temporarily discontinued during peptide infusion (1 mL/minute).
Following equilibration of approximately 60 minutes in duration, the BAA-NP or BUA-NP polypeptide was infused for 75 minutes. Hemodynamic and renal data, as well as blood and urine samples, were collected for each 30-minute clearance: pre-infusion, at 30 and 60 minutes of infusion (time denotes mid-clearance). Inulin clearance was used for measuring glomerular filtration rate (GFR). The lithium clearance technique was used for quantifying proximal and distal fractional reabsorption of Na^+ (PFRNa and DFRNa, respectively).
Plasma and urinary ANP, CNP, and cGMP were measured by radioimmunoassays (RIA) (Chen et al., Am. J. Physiol. Regul. Integr. Comp. Physiol., 288(5):R1093-7 (2005); Burnett et al., Science, 231(4742):1145-7 (1986); Steiner et al., J. Biol. Chem., 247(4):1106-13 (1972); Supaporn et al., Kidney Int., 50(5):1718-25 (1996); and Cataliotti et al., Am. J. Physiol., 283(3):F464-72 (2002)). Plasma renin activity (Haber et al., J. Clin. Endocrinol. Metab., 29(10):1349-55 (1969)), angiotensin II (Luchner et al., Hypertension, 28(3):472-7 (1996)), and aldosterone (Sancho and Haber, J. Clin. Endocrinol. Metab., 47(2):391-6 (1978)) were quantified. Plasma and urinary lithium levels were measured by flame emission spectrophotometry (model 357, Instrumentation Laboratory, Wilmington, Mass.) (Margulies et al., J. Clin. Invest., 88(5):1636-42 (1991)). The lithium clearance technique (CLLi) was used to assess PFRNa and DFRNa as follows (Chen et al., Am. J. Physiol. Regul. Integr. Comp. Physiol., 288(5):R1093-7 (2005)): PFRNa=[1−(CLLi/GFR)]×100 and DFRNa=[(CLLi−CLNa)/CLLi]×100, where CLLi=[urine Li^+]×urine flow/[plasma Li^+] and CLNa=[urine Na^+]×urine flow/[plasma Na^+]. Net renal production of cGMP was determined (Margulies et al., J. Clin. Invest., 88(5):1636-42 (1991)): (urinary cGMP×urine flow rate)−(plasma cGMP×GFR). […]

Where [1] appears, read: anesthetized dogs, i.v. infusion, vs. pre-infusion.
Where [2] appears, read: at 30 minutes of infusion, BNP compared to BAA-NP or BUA-NP, equimolar dose.
The mark [3] stands for this setting: at 60 minutes of infusion, BNP compared to BAA-NP or BUA-NP, equimolar dose.
Setting [4] is: anesthetized dogs, i.v. infusion.
[5] abbreviates: anesthetized dogs, i.v. infusion, lithium clearance technique, vs. pre-infusion.

In the case of “human BNP: human BNP natriuretic polypeptide, comparator infused at equimolar dose [reference compound]”, under setting [1], the renal perfusion pressure result is reported as “significantly reduced” and the mean arterial pressure result is on record as “significantly reduced”. Under setting [2], the “change in mean arterial pressure from baseline” value was “significantly greater reduction” and the “change in renal perfusion pressure from baseline” value is recorded as “significantly greater decreases”. For the same substance, the “change in renal perfusion pressure from baseline” value under setting [3] is given as “significantly greater decreases”. Moreover, the “change in mean arterial pressure from baseline” value (at 60 minutes of infusion, BNP versus BAA-NP) is “greater decrease”.
As for “TAPRSLRRSSCFGRKMDRIS-SSSGLGCNSFRY (TAPRSLRRSSCFGRKMDRISSSSGLGCNSFRY) [BUA-NP, 32-residue chimeric natriuretic polypeptide: human urodilatin residues 1-10, human mature BNP residues 10-26, ANP C-terminus]”, under “BUA-NP compared with BAA-NP”, the “activation of cGMP” value is recorded as “greater activation”; the “distal fractional reabsorption of sodium” value is “greater reductions”; the natriuresis and diuresis entry is “enhanced”; the “proximal fractional reabsorption of sodium” value is listed as “greater reductions”. For the same substance, under setting [4], the “net renal generation of cGMP” value is “significantly increased”, the “plasma cGMP” value is reported as “significantly increased”, the “urinary cGMP excretion” value is listed as “significantly increased” and the urinary sodium excretion result was “significantly increased”. Moreover, the urine flow entry under setting [4] was “significantly increased”. In addition, under setting [1], the “plasma ANP immunoreactivity” value was “significantly increased”, the “plasma CNP immunoreactivity” value was “significantly increased”, the glomerular filtration rate result was “preserved” and the renal perfusion pressure result is listed as “preserved”. Under setting [1], the cardiac output entry is given as “preserved”, the “hematocrit (hemoconcentration)” value is on record as “significant increase”, the pulmonary arterial pressure result was “significantly reduced” and the pulmonary capillary pressure entry is recorded as “significantly reduced”. Further, under setting [1], the renal blood flow entry is “significantly enhanced”, the renal vascular resistance result was “significantly reduced”, the right atrial pressure entry was “significantly reduced” and the urinary potassium excretion result is given as “significantly increased”. In addition, under setting [1], the mean arterial pressure entry is listed as “mild decrease”. Under setting [5], the “distal fractional reabsorption of sodium” value is “significantly reduced” and the “proximal fractional reabsorption of sodium” value is “significantly reduced”. The “change in renal perfusion pressure from baseline” value under setting [2] is listed as “preserved”. Under setting [3], the “change in renal perfusion pressure from baseline” value is recorded as “preserved”.
“SLRRSSCFGRKMDRISSSSG-LGCNSFRY (SLRRSSCFGRKMDRISSSSGLGCNSFRY) [BAA-NP, 28-residue chimeric natriuretic polypeptide: human ANP residues 1-6, human mature BNP residues 10-26, human ANP residues 24-28]”: under setting [4], the “net renal generation of cGMP” value is recorded as “significantly increased”, the “plasma cGMP” value is reported as “significantly increased”, the “urinary cGMP excretion” value was “significantly increased” and the urinary sodium excretion entry is given as “significantly increased”. Moreover, the urine flow entry under setting [4] is “significantly increased”. In addition, under setting [1], the “plasma ANP immunoreactivity” value is “significantly increased”, the “plasma CNP immunoreactivity” value is on record as “significantly increased”, the glomerular filtration rate result is given as “preserved” and the cardiac output entry is on record as “preserved”. In addition, under setting [1], the “hematocrit (hemoconcentration)” value was “significant increase”, the plasma aldosterone result was “significantly suppressed”, the “plasma angiotensin II” value is “significantly suppressed” and the plasma renin activity entry was “significantly suppressed”. Moreover, under setting [1], the pulmonary arterial pressure result is “significantly reduced”, the pulmonary capillary pressure result was “significantly reduced”, the renal blood flow result is “significantly enhanced” and the renal vascular resistance result is given as “significantly reduced”. Also, under setting [1], the right atrial pressure result is “significantly reduced”, the “urinary excretion of ANP” value is “significantly increased”, the “urinary excretion of CNP” value is “significantly increased” and the urinary potassium excretion result is “significantly increased”. For the same substance, the mean arterial pressure result under setting [1] was “mild decrease”. Further, under setting [5], the “distal fractional reabsorption of sodium” value is “significantly reduced” and the “proximal fractional reabsorption of sodium” value is on record as “significantly reduced”. In addition, the “change in renal perfusion pressure from baseline” value under setting [2] is recorded as “preserved”. Moreover, the “change in renal perfusion pressure from baseline” value under setting [3] is on record as “preserved”.

These data come from patent US9771405B2, “Nucleic acids encoding for chimeric natriuretic polypeptides with unique pharmacologic profiles” (Mayo Foundation for Medical Education and Research, priority 2008, dated 2017).
